Data published in US11827628B2, “Compositions and methods for inhibition of the JAK pathway” (Rigel Pharmaceuticals, Inc., priority 2005, dated 2023).

Key:
[1] = system: IL-4 stimulated expression of CD23 in human Ramos B cells (JAK-1 and JAK-3); assay: Assay for Ramos B-Cell Line Stimulated with IL-4 (CD23 upregulation, FACS); assay type: cell-based; conditions: Ramos B-cell line stimulated with IL-4; CD23 expression by FACS; read-out: IC50, Example 41
Procedure, shortened: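 Compound effect on IL-4-driven JAK1/JAK3 signalling is gauged as CD23 surface expression, measured by FACS after 20-24 h of stimulation with IL-4 at 50 units/mL final. A 1 h compound pre-treatment at 37 °C precedes stimulation, and IC50 is derived from the results.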

[2] = system: Primary human T-cells; assay: Primary Human T-Cell Proliferation Assay Stimulated with IL-2 (CellTiter-Glo); assay type: cell-based; conditions: primary human T-cell proliferation stimulated with IL-2; read-out: IC50, Example 42
Procedure, shortened: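 Peripheral blood T-cells pre-activated with anti-CD3/anti-CD28 and IL-2 were washed free of IL-2, then cultured with compound plus IL-2 for 72 hours at 37° C, duplicate wells. Viability read as ATP by CellTiter-Glo luminescence; IC50 reported.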

IC50 [1] [nM] | Compound | IC50 [2] [nM]
94.7 | Cc1noc(COc2ccc(Nc3nc(Nc4ccc(S(N)(=O)=O)cc4)ncc3F)cc2)n1 [Compound I-231, N2-(4-Aminosulfonylphenyl)-5-fluoro-N4-[4-(3-methyl-1,2,4-oxadiazol-5-yl)methyleneoxyphenyl]-2,4-pyrimidinediamine] | 290
84 | Cc1ccc(Nc2ncc(F)c(Nc3ccc(OC4CCCN(C)C4)c(Cl)c3)n2)cc1S(N)(=O)=O (racemic) [II-3, Racemic N2-(3-aminosulfonyl-4-methylphenyl)-N4-{3-chloro-4-[(1-methylpiperidin-3-yl)oxy]phenyl}-5-fluoro-2,4-pyrimidinediamine] | 918
236 | Cc1cc(Nc2nc(Nc3ccc(S(N)(=O)=O)cc3)ncc2F)ccc1OCC#N [Compound I-22, N2-(4-Aminosulfonyl)phenyl-N4-(4-cyanomethoxy-3-methyl)phenyl-5-fluoro-2,4-pyrimidinediamine] | 944
155 | Cc1noc(COc2cccc(Nc3nc(Nc4ccc(C)c(S(N)(=O)=O)c4)ncc3F)c2)n1 [Compound I-254, N2-(3-Aminosulfonyl-4-methylphenyl)-5-fluoro-N4-[3-(3-methyl-1,2,4-oxadiazol-5-yl)methyleneoxyphenyl]-2,4-pyrimidinediamine] | 1910
140 | N#CCCc1ccc(Nc2nc(Nc3cccc(S(N)(=O)=O)c3)ncc2F)cc1 [III-14, N2-(3-aminosulfonylphenyl)-N4-[4-(cyanoethylene)phenyl]-5-fluoro-2,4-pyrimidinediamine] | 52.6
25 | Cc1cc(COc2ccc(Nc3nc(Nc4cc(C)c(F)c(S(N)(=O)=O)c4)ncc3F)cc2)no1 [Compound I-217, N2-(3-Aminosulfonyl-4-fluoro-5-methylphenyl)-5-fluoro-N4-[4-(5-methylisoxazol-3-yl)methyleneoxyphenyl]-2,4-pyrimidinediamine] | 217
124 | CCN(CC)CCNS(=O)(=O)c1ccc(Nc2ncc(F)c(Nc3ccc(OCc4nc(C)no4)cc3)n2)cc1 [Compound I-263, N2-[4-(2-N,N-Diethylaminoethyl)aminosulfonylphenyl)-5-fluoro-N4-[4-(3-methyl-1,2,4-oxadiazol-5-yl)methyleneoxyphenyl]-2,4-pyrimidinediamine] | 64.4
93 | N#CCOc1ccc(Nc2nc(Nc3ccc(Cl)c(S(N)(=O)=O)c3)ncc2F)cc1 [Compound I-21, N2-(3-Aminosulfonyl-4-chlorophenyl)-N4-(4-cyanomethoxy)phenyl-5-fluoro-2,4-pyrimidinediamine] | 258
136 | CCN(CC)CCNS(=O)(=O)c1ccc(Nc2ncc(F)c(Nc3ccc(OCc4csc(C)n4)cc3)n2)cc1 [Compound I-284, N2-[4-(2-N,N-Diethylaminoethyl)aminosulfonylphenyl)-5-fluoro-N4-[4-(2-methylthizol-4-yl)methyleneoxyphenyl]-2,4-pyrimidinediamine] | 421
28 | Cc1noc(COc2ccc(Nc3nc(Nc4cccc(S(N)(=O)=O)c4)ncc3F)cc2)n1 [Compound I-258, N2-(3-Aminosulfonylphenyl)-5-fluoro-N4-[4-(3-methyl-1,2,4-oxadiazol-5-yl)methyleneoxyphenyl]-2,4-pyrimidinediamine] | 55.4
36.7 | Cc1ccc(Nc2ncc(F)c(Nc3ccc(OCC#N)cc3)n2)cc1S(N)(=O)=O [Compound I-20, N2-(3-Aminosulfonyl-4-methyl)phenyl-N4-(4-cyanomethoxy)phenyl-5-fluoro-2,4-pyrimidinediamine] | 66.2
18.7 | N#CCc1ccc(Nc2nc(Nc3cccc(S(N)(=O)=O)c3)ncc2F)cc1 [III-4, N2-(3-Aminosulfonyl)phenyl-N4-(4-cyanomethyl)phenyl-5-fluoro-2,4-pyrimidinediamine] | 171
224 | CCN(CC)CCNS(=O)(=O)c1ccc(Nc2ncc(F)c(Nc3ccc(CC#N)cc3)n2)cc1 [III-2, N2-[4-(2-N,N-Diethylaminoethyl)aminosulfonylphenyl)-5-fluoro-N4-(4-cyanomethylphenyl)-2,4-pyrimidinediamine] | 3440
202 | CCN(CC)CCNS(=O)(=O)c1ccc(Nc2ncc(F)c(Nc3ccc(OCc4cc(C)on4)c(C)c3)n2)cc1 [Compound I-245, N2-[4-(2-N,N-Diethylaminoethyl)aminosulfonylphenyl)-5-fluoro-N4-[3-methyl-4-(5-methylisoxazol-3-yl)methyleneoxyphenyl]-2,4-pyrimidinediamine] | 1740
388 | Cc1cc(COc2ccc(Nc3nc(Nc4cccc(S(=O)(=O)N(Cc5oc(=O)oc5C)Cc5oc(=O)oc5C)c4)ncc3F)cc2)no1 [Compound I-248, N2-{3-[N-N-Di-[(5-Methyl-1,3-dioxolene-2-one-4-yl)methylene]]aminosulfonylphenyl}-5-fluoro-N4-[4-(5-methylisoxazol-3-yl)methyleneoxyphenyl]-2,4-pyrimidinediamine] | 138
61.9 | Cc1ccc(Nc2ncc(F)c(Nc3cc(C)c(OCC#N)c(C)c3)n2)cc1S(N)(=O)=O [Compound I-27, N2-(3-Aminosulfonyl-4-methyl)phenyl-N4-(4-cyanomethoxy-3,5-dimethyl)phenyl-5-fluoro-2,4-pyrimidinediamine] | 914
428 | N2-(3-Aminocarbonyl-5-methylphenyl)-5-fluoro-N2-[4-(1-ethylpyrazol-5-yl)amidophenyl)-2,4-pyrimidinediamine [II-20] | 969
95.4 | N#CCCc1ccc(Nc2nc(Nc3cccc(S(N)(=O)=O)c3)ncc2F)cc1C(F)(F)F [III-31, N4-(4-Cyanoethylene-3-trifluoromethylphenyl)-5-fluoro-N2-(3-aminosulfonylphenyl)-2,4-pyrimidinediamine] | 328
151 | Cc1nnc(COc2ccc(Nc3nc(Nc4cccc(S(N)(=O)=O)c4)ncc3F)cc2)o1 [Compound I-277, N2-(3-aminosulfonylphenyl)-5-fluoro-N4-[4-(5-methyl-1,3,4-oxadiazol-2-yl)methyleneoxyphenyl]-2,4-pyrimidinediamine] | 91.5
106 | CCN(CC)CCNS(=O)(=O)c1ccc(Nc2ncc(F)c(Nc3ccc(OCc4cc(C)on4)cc3)n2)cc1 [Compound I-246, N2-[4-(2-N,N-Diethylaminoethyl)aminosulfonylphenyl)-5-fluoro-N4-[4-(5-methylisoxazol-3-yl)methyleneoxyphenyl]-2,4-pyrimidinediamine] | 182
256 | CNS(=O)(=O)c1cc(Nc2ncc(F)c(Nc3cccc(OCc4nc(C)no4)c3)n2)ccc1C [Compound I-255, 5-Fluoro-N2-[3-(N-methylaminosulfony)-4-methylphenyl]-N4-[3-(3-methyl-1,2,4-oxadiazol-5-yl)methyleneoxyphenyl]-2,4-pyrimidinediamine] | 2860
138 | N#CCc1ccc(Nc2nc(Nc3ccc(Cl)c(S(N)(=O)=O)c3)ncc2F)cc1 [III-8, N2-(3-Aminosulfonyl-4-chloro)phenyl-N4-(4-cyanomethyl)phenyl-5-fluoro-2,4-pyrimidinediamine] | 921
